In US12692233B2, “Anthelmintic compounds comprising a pyridine structure” (Intervet Inc., priority 2020, dated 2026):

Assays:
Oesophagostumum dentatum [1] = assay: In vitro assay Oesophagostumum dentatum larval stage 3; assay type: cell-based; details: larval stage 3, 20 larvae per well, microscopic examination; read-out: MEC (minimum effective concentration) against Oesophagostumum dentatum L3
Text: (§1) […] galli (intestinal roundworm of chicken), larval stage 3 (“L3”); and Oesophagostumum dentatum (nodular worm of swine), larval stages 3 and 4 (respectively “L3” and “L4”) where suspended in a nutrient medium and distributed to 96 well plates with 20 larvae per well. The wells were spiked DMSO solutions of the compounds with declining concentration.

Oesophagostumum dentatum [2] = assay: In vitro assay Oesophagostumum dentatum larval stage 4; assay type: cell-based; details: larval stage 4, 20 larvae per well, microscopic examination; read-out: MEC (minimum effective concentration) against Oesophagostumum dentatum L4
Text: as §1

Dirofilaria immitis = assay: In vitro assay Dirofilaria immitis L1 (microfilaria), motility; assay type: cell-based; details: 72 h, 3 days incubation, reduction in motility vs DMSO
Method: (§2) Approximately 500 D. immitis microfilaria were added to a microtiter plate containing a nutrient medium and the test compound in DMSO at varying concentrations. After incubation for 3 days, activity was evaluated as reduction in motility as compared to DMSO as negative control. Compounds were tested in duplicates. Based on the concentration response curves EC50 values were calculated.

Acanthocheilonema viteae = assay: In vitro assay Acanthocheilonema viteae L1 (microfilaria), motility; assay type: cell-based; details: 72 h, 3 days incubation, reduction in motility vs DMSO
Method: as §2, with “A. viteae” for “D. immitis”

[3] = target: T1, human Maxi K channel (BK channel) (Homo sapiens, UniProt Q12791); assay: Agonistic activity at the human Maxi K channel (BK channel), FLIPR membrane potential in CHO K1 cells; assay type: cell-based; details: CHO K1 cells stably transfected with KCNMA1 and beta1 (KCNMB1) subunits, membrane potential dye
T1 construct: expressed in transfected cells; host or cells: CHO K1
T1 sequence (Q12791 1-1178 isoform Q12791-5): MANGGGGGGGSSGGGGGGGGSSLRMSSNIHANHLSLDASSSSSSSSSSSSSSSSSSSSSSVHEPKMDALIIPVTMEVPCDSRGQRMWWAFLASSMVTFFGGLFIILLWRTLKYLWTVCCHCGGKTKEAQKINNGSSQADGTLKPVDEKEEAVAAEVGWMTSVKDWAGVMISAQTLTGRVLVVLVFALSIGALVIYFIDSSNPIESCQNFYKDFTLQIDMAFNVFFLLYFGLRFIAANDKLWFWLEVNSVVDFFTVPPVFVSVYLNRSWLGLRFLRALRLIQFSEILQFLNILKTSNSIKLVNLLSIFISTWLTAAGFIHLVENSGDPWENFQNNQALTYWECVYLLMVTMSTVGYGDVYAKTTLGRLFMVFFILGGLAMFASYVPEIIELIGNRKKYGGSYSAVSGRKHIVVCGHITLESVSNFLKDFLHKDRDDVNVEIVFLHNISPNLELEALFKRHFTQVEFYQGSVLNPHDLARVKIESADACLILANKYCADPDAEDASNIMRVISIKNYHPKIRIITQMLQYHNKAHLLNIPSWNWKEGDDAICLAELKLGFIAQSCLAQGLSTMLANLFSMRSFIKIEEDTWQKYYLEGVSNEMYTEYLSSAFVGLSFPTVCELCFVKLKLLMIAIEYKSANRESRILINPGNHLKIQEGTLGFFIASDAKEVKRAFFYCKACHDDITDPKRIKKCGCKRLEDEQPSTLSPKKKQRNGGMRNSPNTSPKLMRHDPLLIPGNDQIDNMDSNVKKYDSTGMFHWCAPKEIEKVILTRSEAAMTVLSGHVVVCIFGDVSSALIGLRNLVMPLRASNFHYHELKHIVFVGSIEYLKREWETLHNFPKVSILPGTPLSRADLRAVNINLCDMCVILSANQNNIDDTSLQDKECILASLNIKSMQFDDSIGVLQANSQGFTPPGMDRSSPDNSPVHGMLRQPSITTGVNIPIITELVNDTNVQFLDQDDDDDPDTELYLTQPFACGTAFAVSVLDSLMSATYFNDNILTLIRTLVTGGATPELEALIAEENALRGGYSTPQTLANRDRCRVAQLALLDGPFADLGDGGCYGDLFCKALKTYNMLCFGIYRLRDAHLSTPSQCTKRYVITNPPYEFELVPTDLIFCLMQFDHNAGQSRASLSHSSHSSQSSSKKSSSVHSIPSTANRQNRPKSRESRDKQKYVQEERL
T1 sequence (Q16558 whole entry partner): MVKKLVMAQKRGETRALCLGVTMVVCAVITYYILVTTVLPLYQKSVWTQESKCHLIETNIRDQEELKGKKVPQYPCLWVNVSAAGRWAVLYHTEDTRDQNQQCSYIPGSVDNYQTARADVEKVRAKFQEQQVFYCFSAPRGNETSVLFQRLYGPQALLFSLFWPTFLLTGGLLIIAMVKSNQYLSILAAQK
Text: A CHO K1 cell line was stably transfected with the KCNMA1 (KCa1.1, U11058) and beta1 (KCNMB1) subunits of the human Maxi K channel (Ponte et al, Molecular Pharmacology 2012, 81(4), 567-577).
The complete measurement takes 150 s.

Ascaridia galli = assay: In vitro assay Ascaridia galli larval stage 3; assay type: cell-based; details: larval stage 3, 20 larvae per well, microscopic examination, read-out: MEC (minimum effective concentration) against Ascaridia galli L3
Text: as §1

Haemonchus contortus = assay: In vitro assay Haemonchus contortus, motility of exsheathed L3 larvae; assay type: cell-based; details: 168 h, 7 days incubation, motility reduced by 50% with respect to positive control ivermectin, read-out: ED50 against Haemonchus contortus
Method: Solutions of compounds with declining concentrations in DMSO were prepared, diluted with nutrient medium and distributed to 96 well microtiterplates. […]3 larvae of Haemonchus contortus were incubated for 20 min at 37° C. in a water bath, separated by centrifugation and added to the wells with 300 Larvae/well. After incubation for 7 days motility was assessed by automated microscopy. Ivermectin was used as positive control, DMSO as negative control and ED50 values were calculated which represent the concentration for an individual compound that reduces motility by 50% with respect to the […].

C. elegans Slo-1a = C. elegans Slo-1a (Caenorhabditis elegans, UniProt Q95V25); assay: Agonistic activity at C. elegans Slo-1a, FLIPR membrane potential in CHO K1 cells; details: EC50 agonistic activity at C. elegans Slo-1a, CHO K1 cells stably transfected with slo-1a, membrane potential dye
Chain of C. elegans Slo-1a (Q95V25 whole entry): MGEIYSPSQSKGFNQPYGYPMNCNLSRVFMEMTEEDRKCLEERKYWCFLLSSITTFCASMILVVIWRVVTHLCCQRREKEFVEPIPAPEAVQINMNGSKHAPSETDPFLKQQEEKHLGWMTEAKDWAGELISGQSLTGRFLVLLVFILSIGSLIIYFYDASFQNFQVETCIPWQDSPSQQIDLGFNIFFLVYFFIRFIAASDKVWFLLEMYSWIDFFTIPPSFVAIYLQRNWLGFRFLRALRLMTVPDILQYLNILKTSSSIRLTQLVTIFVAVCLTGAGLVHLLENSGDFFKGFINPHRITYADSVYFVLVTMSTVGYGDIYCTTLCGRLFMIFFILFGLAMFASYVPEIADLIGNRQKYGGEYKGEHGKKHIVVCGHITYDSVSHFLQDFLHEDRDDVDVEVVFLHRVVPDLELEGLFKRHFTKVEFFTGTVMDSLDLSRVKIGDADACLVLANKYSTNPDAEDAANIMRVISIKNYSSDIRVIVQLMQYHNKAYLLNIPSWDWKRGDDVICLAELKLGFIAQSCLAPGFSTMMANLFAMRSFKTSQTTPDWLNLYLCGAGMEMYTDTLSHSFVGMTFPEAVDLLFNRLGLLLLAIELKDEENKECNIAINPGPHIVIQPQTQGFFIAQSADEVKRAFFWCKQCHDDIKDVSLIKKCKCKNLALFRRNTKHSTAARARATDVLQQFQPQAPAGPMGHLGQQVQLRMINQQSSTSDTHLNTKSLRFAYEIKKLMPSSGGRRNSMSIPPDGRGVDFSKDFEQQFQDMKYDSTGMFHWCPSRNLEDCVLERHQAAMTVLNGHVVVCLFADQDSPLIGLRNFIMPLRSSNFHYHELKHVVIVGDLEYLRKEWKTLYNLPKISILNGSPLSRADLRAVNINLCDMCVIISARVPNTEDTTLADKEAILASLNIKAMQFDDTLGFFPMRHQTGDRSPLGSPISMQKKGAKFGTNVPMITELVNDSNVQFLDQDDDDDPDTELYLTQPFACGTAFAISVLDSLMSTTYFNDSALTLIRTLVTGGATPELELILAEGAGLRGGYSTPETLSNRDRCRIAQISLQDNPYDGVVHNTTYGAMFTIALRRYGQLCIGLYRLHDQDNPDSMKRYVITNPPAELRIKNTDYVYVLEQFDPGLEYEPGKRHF

| SMILES | EC50 [3] [µM] | EC50 (C. elegans Slo-1a) [µM] | minimal effective concentration (Oesophagostumum dentatum [1]) [µM] | minimal effective concentration (Oesophagostumum dentatum [2]) [µM] | EC50 (Dirofilaria immitis) [µM] | EC50 (Acanthocheilonema viteae) [µM] | minimal effective concentration (Ascaridia galli) [µM] | EC50 (Haemonchus contortus) [µM] |
| --- | --- | --- | --- | --- | --- | --- | --- | --- |
| CN(C)c1cc(Oc2cccc(Cl)c2Cl)ncc1C(=O)Nc1cccc2ccccc12 [Compound 36] | > 30 |  | ≤ 50 | ≤ 50 | < 10 | < 10 |  |  |
| COc1cc(Oc2cccc(Cl)c2Cl)ncc1C(=O)N[C@H]1CCOc2ccccc21 [Compound 95] | > 30 |  |  |  | < 10 | < 10 | ≤ 50 |  |
| CCOc1cc(Sc2cccc(Cl)c2Cl)ncc1C(=O)N[C@H]1CCc2ccccc21 [Compound 72] | > 30 | < 10 |  |  | < 10 | < 10 | ≤ 50 | < 50 |
| O=C(Nc1csc2ccccc12)c1cnc(Oc2cccc(Cl)c2Cl)cc1N1CCOCC1 [Compound 46] | > 30 |  |  |  | < 10 | < 10 |  |  |
| CN(C)c1cc(Sc2cccc(Cl)c2Cl)ncc1C(=O)N[C@@H]1CCOc2ccccc21 [Compound 39] | > 30 |  | ≤ 50 |  | < 10 | < 10 |  |  |
| CN(C)c1cc(Sc2cc(Cl)cc(Cl)c2)ncc1C(=O)N[C@@H]1CCOc2ccccc21 [Compound 18] | > 30 |  |  |  | < 10 |  | ≤ 50 | < 50 |
| CCOc1cc(Oc2cc(Cl)cc(Cl)c2)ncc1C(=O)N[C@H]1CCc2ccccc21 [Compound 90] | > 30 |  | ≤ 50 |  |  | < 10 | ≤ 50 |  |
| COc1cc(Sc2cc(Cl)cc(Cl)c2)ncc1C(=O)N[C@H]1CCCc2ccccc21 [Compound 82] | > 30 | < 10 |  | ≤ 50 | < 10 | < 10 |  | < 50 |
| COc1cc(Oc2cccc(Cl)c2Cl)ncc1C(=O)N[C@H]1CCc2ccccc21 [Compound 94] | > 30 |  |  |  | < 10 | < 10 |  |  |
| CN(C)c1cc(Oc2cccc(Cl)c2Cl)ncc1C(=O)Nc1csc2ccccc12 [Compound 37] | > 30 |  |  | ≤ 50 |  | < 10 | ≤ 50 |  |
| CSc1cc(Sc2cc(Cl)cc(Cl)c2)ncc1C(=O)N[C@@H]1CCOc2ccccc21 [Compound 55] | > 30 |  |  |  |  |  |  | < 50 |

Continued, in another order:

| EC50 [3] [µM] | EC50 (C. elegans Slo-1a) [µM] | SMILES | minimal effective concentration (Oesophagostumum dentatum [1]) [µM] | minimal effective concentration (Oesophagostumum dentatum [2]) [µM] | EC50 (Dirofilaria immitis) [µM] | EC50 (Acanthocheilonema viteae) [µM] | minimal effective concentration (Ascaridia galli) [µM] | EC50 (Haemonchus contortus) [µM] |
| --- | --- | --- | --- | --- | --- | --- | --- | --- |
| > 30 | < 1 | CN(C)c1cc(Oc2cccc(Cl)c2Cl)ncc1C(=O)N[C@H]1CCCc2ccccc21 [Compound 34] |  |  |  |  |  | < 50 |
| > 30 |  | CSc1cc(Oc2cccc(Cl)c2Cl)ncc1C(=O)N[C@H]1CCOc2ccccc21 [Compound 57] |  |  |  | < 10 | ≤ 50 |  |
| > 30 |  | CCOc1cc(Sc2cc(Cl)cc(Cl)c2)ncc1C(=O)N[C@H]1CCc2ccccc21 [Compound 97] |  |  |  | < 10 |  |  |
| > 30 |  | CCSc1cc(Sc2cc(Cl)cc(Cl)c2)ncc1C(=O)N[C@H]1CCc2ccccc21 [Compound 73] | ≤ 50 |  |  |  |  | < 50 |
| > 30 | < 1 | O=C(N[C@H]1CCCc2ccccc21)c1cnc(Sc2cccc(Cl)c2Cl)cc1N1CCOCC1 [Compound 21] |  |  |  |  |  | < 50 |
| > 30 | < 10 | COc1cc(Sc2cccc(Cl)c2Cl)ncc1C(=O)N[C@H]1CCc2ccccc21 [Compound 67] |  | ≤ 50 |  | < 10 | ≤ 50 |  |
| > 30 | < 10 | COc1cc(Sc2cc(Cl)cc(Cl)c2)ncc1C(=O)N[C@H]1CCc2ccccc21 [Compound 84] | ≤ 50 | ≤ 50 |  | < 10 |  |  |
| > 30 | < 10 | CSc1cc(Sc2cccc(Cl)c2Cl)ncc1C(=O)N[C@H]1CCOc2ccccc21 [Compound 52] | ≤ 50 |  |  |  | ≤ 50 | < 50 |
| > 30 | < 1 | CN(C)c1cc(Oc2cccc(Cl)c2Cl)ncc1C(=O)N[C@H]1CCc2ccccc21 [Compound 35] |  |  |  |  |  | < 50 |
